The target of assay [1] is Sodium-dependent serotonin transporter (Homo sapiens, UniProt P31645).
Description: Inhibition of SERT (unknown origin)
A further assay deals with Acetylcholinesterase (Homo sapiens, UniProt P22303).
In a further assay the target is T1, Thromboxane-A synthase (Homo sapiens, UniProt P24557).
T1 sequence (P24557 whole entry): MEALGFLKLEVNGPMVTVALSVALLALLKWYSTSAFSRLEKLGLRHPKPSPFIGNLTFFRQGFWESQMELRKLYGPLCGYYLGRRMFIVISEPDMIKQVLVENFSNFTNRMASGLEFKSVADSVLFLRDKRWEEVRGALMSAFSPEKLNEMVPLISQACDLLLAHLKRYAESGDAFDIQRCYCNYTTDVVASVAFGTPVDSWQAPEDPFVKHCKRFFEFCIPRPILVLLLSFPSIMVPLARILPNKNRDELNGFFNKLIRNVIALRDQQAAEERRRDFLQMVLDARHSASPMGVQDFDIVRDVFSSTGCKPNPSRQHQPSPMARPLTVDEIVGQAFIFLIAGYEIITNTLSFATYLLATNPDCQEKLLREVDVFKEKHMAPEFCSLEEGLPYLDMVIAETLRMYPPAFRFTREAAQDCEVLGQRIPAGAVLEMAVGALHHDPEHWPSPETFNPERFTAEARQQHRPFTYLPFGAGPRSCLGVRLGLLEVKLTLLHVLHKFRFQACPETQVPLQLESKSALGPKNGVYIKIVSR

Another assay deals with T2, Vitamin D3 receptor (Homo sapiens, UniProt P11473).
T2 sequence (P11473 whole entry): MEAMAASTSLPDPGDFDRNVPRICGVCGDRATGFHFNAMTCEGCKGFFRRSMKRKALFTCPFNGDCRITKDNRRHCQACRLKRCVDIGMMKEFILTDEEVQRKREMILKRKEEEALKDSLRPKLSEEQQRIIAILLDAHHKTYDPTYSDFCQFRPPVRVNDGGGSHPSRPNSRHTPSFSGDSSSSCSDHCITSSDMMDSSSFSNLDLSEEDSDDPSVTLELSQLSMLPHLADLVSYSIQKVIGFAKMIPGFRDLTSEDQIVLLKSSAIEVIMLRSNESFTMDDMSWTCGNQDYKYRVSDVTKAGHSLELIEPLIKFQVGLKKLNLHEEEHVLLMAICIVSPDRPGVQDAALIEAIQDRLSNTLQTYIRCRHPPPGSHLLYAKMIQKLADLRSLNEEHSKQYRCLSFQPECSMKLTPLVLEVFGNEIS

The target in assay [2] is Voltage-dependent calcium channel subunit alpha-2/delta-1 (Homo sapiens, UniProt P54289).
Description: Binding affinity to calcium channel alpha2delta1 (unknown origin)
For assay [3], the target named is Amyloid-beta precursor protein (Homo sapiens, UniProt P05067).
Chain of Amyloid-beta precursor protein (P05067 whole entry): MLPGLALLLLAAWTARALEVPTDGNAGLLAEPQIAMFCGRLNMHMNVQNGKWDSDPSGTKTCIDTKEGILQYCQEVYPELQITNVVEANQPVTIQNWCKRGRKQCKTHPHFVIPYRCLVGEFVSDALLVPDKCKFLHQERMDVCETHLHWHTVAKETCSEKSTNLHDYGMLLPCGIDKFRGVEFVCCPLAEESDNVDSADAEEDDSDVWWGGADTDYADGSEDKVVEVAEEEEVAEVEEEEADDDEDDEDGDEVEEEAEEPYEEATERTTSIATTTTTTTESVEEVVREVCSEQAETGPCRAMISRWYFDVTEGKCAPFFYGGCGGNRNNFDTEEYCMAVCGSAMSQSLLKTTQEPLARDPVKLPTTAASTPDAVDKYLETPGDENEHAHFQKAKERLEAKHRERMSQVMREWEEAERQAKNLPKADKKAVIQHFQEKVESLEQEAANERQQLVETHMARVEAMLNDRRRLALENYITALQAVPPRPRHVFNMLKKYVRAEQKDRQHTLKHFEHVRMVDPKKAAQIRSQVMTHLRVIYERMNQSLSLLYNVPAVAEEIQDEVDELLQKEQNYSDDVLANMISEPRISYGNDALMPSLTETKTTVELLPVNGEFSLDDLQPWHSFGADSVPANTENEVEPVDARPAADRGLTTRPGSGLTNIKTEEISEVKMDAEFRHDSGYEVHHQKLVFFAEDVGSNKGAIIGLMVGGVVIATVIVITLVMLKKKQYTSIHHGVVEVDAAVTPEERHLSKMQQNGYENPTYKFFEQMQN
Description: Inhibition of amyloid beta (1 to 42 ) (unknown origin) self aggregation

Chain of Acetylcholinesterase (P22303 whole entry): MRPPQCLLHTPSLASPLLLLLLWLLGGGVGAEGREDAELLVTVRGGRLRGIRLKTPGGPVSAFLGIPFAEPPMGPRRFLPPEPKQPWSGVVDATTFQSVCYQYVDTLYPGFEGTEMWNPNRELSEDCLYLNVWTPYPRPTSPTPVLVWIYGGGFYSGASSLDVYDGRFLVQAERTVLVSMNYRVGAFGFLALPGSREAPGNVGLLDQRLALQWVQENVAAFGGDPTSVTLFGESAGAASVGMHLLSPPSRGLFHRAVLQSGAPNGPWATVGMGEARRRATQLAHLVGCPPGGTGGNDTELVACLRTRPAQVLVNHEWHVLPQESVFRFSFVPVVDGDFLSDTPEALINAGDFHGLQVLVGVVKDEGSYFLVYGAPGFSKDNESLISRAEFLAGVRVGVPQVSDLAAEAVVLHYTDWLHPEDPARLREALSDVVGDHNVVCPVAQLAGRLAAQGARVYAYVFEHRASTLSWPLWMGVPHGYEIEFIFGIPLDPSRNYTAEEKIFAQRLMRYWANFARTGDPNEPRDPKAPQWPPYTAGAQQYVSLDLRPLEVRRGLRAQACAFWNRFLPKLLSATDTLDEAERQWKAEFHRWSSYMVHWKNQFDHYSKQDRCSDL
Chain of Sodium-dependent serotonin transporter (P31645 whole entry): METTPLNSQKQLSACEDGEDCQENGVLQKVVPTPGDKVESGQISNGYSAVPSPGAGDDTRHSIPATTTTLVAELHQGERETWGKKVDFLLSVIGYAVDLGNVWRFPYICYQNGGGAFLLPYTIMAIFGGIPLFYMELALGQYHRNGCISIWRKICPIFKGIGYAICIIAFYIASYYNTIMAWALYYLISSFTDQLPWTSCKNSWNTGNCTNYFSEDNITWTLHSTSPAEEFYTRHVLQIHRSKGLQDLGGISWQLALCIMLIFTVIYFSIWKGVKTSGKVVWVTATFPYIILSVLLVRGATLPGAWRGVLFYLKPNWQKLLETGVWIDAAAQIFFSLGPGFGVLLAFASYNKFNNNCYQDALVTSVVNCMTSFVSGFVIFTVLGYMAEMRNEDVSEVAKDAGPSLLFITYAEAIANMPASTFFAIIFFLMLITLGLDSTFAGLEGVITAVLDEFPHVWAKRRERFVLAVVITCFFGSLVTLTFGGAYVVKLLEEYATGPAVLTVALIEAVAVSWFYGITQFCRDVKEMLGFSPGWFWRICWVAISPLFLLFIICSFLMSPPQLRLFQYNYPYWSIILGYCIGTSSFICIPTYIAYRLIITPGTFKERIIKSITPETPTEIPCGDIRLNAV
Chain of Voltage-dependent calcium channel subunit alpha-2/delta-1 (P54289 25-956 limits assumed): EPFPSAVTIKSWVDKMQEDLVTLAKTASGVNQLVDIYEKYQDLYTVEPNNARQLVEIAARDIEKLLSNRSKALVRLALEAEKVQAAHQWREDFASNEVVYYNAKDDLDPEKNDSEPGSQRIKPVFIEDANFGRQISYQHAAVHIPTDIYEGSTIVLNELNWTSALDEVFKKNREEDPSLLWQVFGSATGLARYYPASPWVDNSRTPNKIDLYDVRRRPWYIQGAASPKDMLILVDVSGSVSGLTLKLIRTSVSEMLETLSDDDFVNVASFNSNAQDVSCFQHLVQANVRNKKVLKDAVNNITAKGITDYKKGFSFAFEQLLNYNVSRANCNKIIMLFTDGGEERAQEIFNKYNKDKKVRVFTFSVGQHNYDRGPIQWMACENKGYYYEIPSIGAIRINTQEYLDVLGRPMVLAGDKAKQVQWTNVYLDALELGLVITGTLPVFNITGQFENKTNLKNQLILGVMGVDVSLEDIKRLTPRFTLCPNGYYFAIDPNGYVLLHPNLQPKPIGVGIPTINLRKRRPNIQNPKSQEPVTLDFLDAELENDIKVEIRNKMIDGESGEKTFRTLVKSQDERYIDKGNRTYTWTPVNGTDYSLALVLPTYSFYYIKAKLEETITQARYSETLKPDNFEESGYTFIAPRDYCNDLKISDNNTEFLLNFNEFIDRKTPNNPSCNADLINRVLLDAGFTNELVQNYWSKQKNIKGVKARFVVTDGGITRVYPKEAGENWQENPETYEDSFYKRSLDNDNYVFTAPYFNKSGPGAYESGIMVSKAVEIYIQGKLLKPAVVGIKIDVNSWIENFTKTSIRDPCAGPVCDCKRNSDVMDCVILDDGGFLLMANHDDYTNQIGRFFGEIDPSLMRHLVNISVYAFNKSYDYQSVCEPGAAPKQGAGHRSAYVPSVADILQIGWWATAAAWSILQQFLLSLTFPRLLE
Chain of Voltage-dependent calcium channel subunit alpha-2/delta-1 (P54289 957-1103 limits assumed): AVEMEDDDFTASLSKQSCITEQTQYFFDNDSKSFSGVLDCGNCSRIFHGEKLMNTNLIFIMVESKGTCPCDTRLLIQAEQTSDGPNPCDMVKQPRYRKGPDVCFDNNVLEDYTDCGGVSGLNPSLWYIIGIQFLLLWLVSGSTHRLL
Description for Acetylcholinesterase: Inhibition of AChE (unknown origin)
Description for Thromboxane-A synthase: Inhibition of TXA2 synthetase (unknown origin)
Description for Vitamin D3 receptor: Inhibition of VDR (unknown origin)

Regarding `CCN(C)C(=O)Oc1ccc2c(c1)C=CC(C)N(C)C2CCOc1ccc([N+](=O)[O-])cc1` (stereo not given), the IC50 (usually the concentration that gives 50% inhibition) in assay [1] was 6 nM; at Acetylcholinesterase, 14 nM.

As to `CCN(C)C(=O)Oc1ccc(C(CCOc2ccc([N+](=O)[O-])cc2)NC)cc1` (stereo not given), the IC50 was 42 nM in assay [1] and 101 nM against Acetylcholinesterase.

Consider `CCOC(=O)CCCCO/N=C(/c1cccnc1)c1cccc(CNS(=O)(=O)c2ccc(Cn3c(C)nc4ccccc43)cc2)c1`, for which the IC50 at Thromboxane-A synthase came to 4.7 nM.

The compound `CC(/C=C/C(=O)NO)=C\C(C)C1CCC2/C(=C/C=C3CC(O)CC(O)C3)CCCC21C` (stereo not given) returned an IC50 at Vitamin D3 receptor of 87 nM.

For `CCNc1ncc2c(n1)N1CCCC1CN(c1cccc(-c3noc(C)n3)c1)C2=O` (stereo not given), the Ki (in general, a dissociation constant, usually derived from enzyme kinetics or from competition with a known ligand) in assay [2] is 11 nM.

Consider `Cc1c(O)c(=O)ccn1-c1ccc(OCCCN2CCCC2)cc1`, for which 2850 nM corresponded to half-maximal inhibition in assay [3] (IC50).

Compound `CCN(CC)CCCOc1ccc(-c2oc3ccccc3c2C(=O)c2ccc(C)cc2)cc1` had an IC50 in assay [3] of 56000 nM.

In turn, `O=C(O)CCCCO/N=C(/c1cccnc1)c1cccc(C(F)(F)F)c1` [RIDOGREL] registered an IC50 against Thromboxane-A synthase of 500 nM.

The values are drawn from ChEMBL document CHEMBL5226328, “Rational Multitargeted Drug Design Strategy from the Perspective of a Medicinal Chemist” (J Med Chem, 2021).
